Patent US9700578B2, “Use of nitrite salts for the treatment of cardiovascular conditions” (The United States of America as represented by the …, priority 2003, dated 2017)

Legend:
forearm circulation = assay: Sodium nitrite infusion into the brachial artery, forearm blood flow by venous-occlusion plethysmography; conditions: 8 μmol/min into brachial artery for 5 minutes
Description: The protocol was approved by the Institutional Review Board of the National Heart, Lung and Blood Institute, and informed consent was obtained from all volunteer subjects. […] An additional 10 subjects returned three-six months later for a second series of experiments with low dose nitrite infusion. […] No volunteer subject was allowed to take any medication (oral contraceptive agents allowed), vitamin supplements, herbal preparations, nutriceuticals or other “alternative therapies” for at least one month prior to study and were not be allowed to take aspirin for one week prior to study.
Brachial artery and antecubital vein catheters were placed into the arm, with the intraarterial catheter connected to a pressure transducer for blood pressure measurements and an infusion pump delivering normal saline at 1 mL/min. After 20 minutes of rest, baseline arterial and venous blood samples were obtained and forearm blood flow measurements were made by strain gauge venous-occlusion plethysmography, as previously reported (Panza et al., Circulation, 87, 1468-74, 1993). A series of 7 blood flow measurements were averaged for each blood flow determination. A series of measurements termed Parts I and II were performed in randomized order to minimize a time effect on the forearm blood flow response during nitrite infusion.
Part I: Following 20 minutes of 0.9% NaCl (saline) solution infusion at 1 mL/min into the brachial artery, arterial and venous blood samples were obtained for the assays described below and forearm blood flow measured. Exercise was performed by repetitive hand-grip at one-third of the predetermined maximum grip strength using a hand-grip dynamometer (Technical Products Co.) (Gladwin et al., Proc Natl Acad Sci USA, 97, 9943-8, 2000; Gladwin et al., Proc Natl Acad Sci USA, 97, 11482-11487, 2000; Cannon et al., J Clin Invest, 108, 279-87, 2001). Each contraction lasted for 10 seconds followed by relaxation for 5 seconds. Following 5 minutes of exercise, forearm blood flow measurements were obtained during relaxation phases of exercise, and arterial and venous samples collected. Following a 20-minute rest period with continued infusion of saline into the brachial artery, repeated baseline blood samples and forearm blood flow measurements were obtained. L-NMMA was then infused at a rate of 1 mL/min (8 μmol/min) into the brachial artery. Following 5 minutes of L-NMMA infusion, forearm blood flow was measured, and arterial and venous blood samples obtained. Forearm exercise was then initiated in that arm during continued L-NMMA infusion. Forearm blood flow was measured and blood samples obtained after 5 minutes of exercise during continued L-NMMA infusion (FIG. 1).
Part II: After a 30 minute rest period with continued infusion of saline, baseline measurements were obtained, the saline infusion was then stopped, and infusion of nitrite (NaNO2 36 μmol/ml in 0.9% saline) at 1 ml/min was started. […] For the final 9 subjects studied, 0.01-0.03 mM sodium bicarbonate was added to the normal saline, so as to titrate pH to 7.0-7.4. The nitrite solution was light protected and nitrite levels and free NO gas in solution measured by reductive chemiluminescence after all experiments (Gladwin et al., J Biol Chem, 21, 21, 2002).

[1] = test system: hypoxic-induced pulmonary hypertension; assay: Comparison of inhaled nitrite and NO gas during hypoxic-induced pulmonary vasoconstriction: efficacy and duration; format: in vivo, newborn lambs; conditions: hypoxia
Description: NO gas was introduced into the inspiratory limb of the breathing circuit. The inspired concentration of NO was continuously measured by chemiluminescence (CLD 700 AL, Eco Physics Inc, Ann Arbor, Mich.) in the inspiratory limb of the ventilator loop.
efficacy and duration of effect. This protocol was designed to compare the efficacy of nitrite with the clinical standard, 20 ppm inhaled NO gas. […] A second purpose was to determine the duration of effect of a short nitrite nebulization versus NO gas inhalation on hemodynamic and physiological measurements during prolonged hypoxic-induced pulmonary vasoconstriction. After baseline measurements were performed, the lambs were made hypoxic as described above for 35 minutes. Ten minutes after initiation of hypoxia, a 20-minute period of NO gas inhalation was initiated (20 ppm), with continuation of hypoxia for 5 minutes after cessation of NO gas delivery. Lambs were then allowed to recover for one hour. Again, after baseline measurements were made, a second 90-minute period of hypoxia was initiated.

[2] = test system: hepatic ischemia-reperfusion injury; assay: Hepatic ischemia-reperfusion (I/R) injury; format: in vivo, mice
Experimental: Carboxy-PTIO [2-(4-Carboxyphenyl)-4,4,5,5-tetramethylimidazoline-1-oxyl-3-oxide potassium salt], a direct intravascular NO scavenger, was utilized to inhibit NO dependent effects following hepatic I/R injury. Carboxy-PTIO (Alexis Biochemicals) was dissolved in phosphate buffered saline and administered intravenously at a dose of 1 mg/Kg in a volume of 50 μL at 30 minutes prior to hepatic ischemia Zinc(II) Deuteroporphyrin IX-2,4-bisethyleneglycol (ZnDBG) (Alexis Biochemicals), a heme oxygenase-1 inhibitor was injected i.p. at a dose of 10 mg/Kg in a volume of 50 μL at 30 minutes prior to the induction of hepatic ischemia.
All of the mice utilized in the present studies were C57BL6/J at 8-10 weeks of age obtained from the Jackson Laboratories (Bar Harbor, Me.). In additional experiments of hepatic I/R injury we utilized mice completely deficient (−/−) in endothelial nitric oxide synthase (eNOS). eNOS−/− mice were originally generously donated from Dr. Paul Huang (Mass. General Hospital) and generated in our breeding colony at LSU-Health Sciences Center. eNOS−/− mice were utilized at 8-10 weeks of age.
The hepatic I/R protocol is depicted in FIG. 6A and has been described previously (Hines et al., Biochem Biophys Res Commun 284:972-976, 2001; Hines et al., Am J Physiol Gastrointest Liver Physiol 284:G536-545, 2001). Mice were anesthetized with the combination of ketamine (100 mg/kg) and zylazine (8 mg/kg) and a midline laparotomy was performed to expose the liver. Mice were then injected with heparin (100 μg/kg, i.p.) to prevent blood clotting. The left lateral and median lobes of the liver were rendered ischemic by completely clamping the hepatic artery and the portal vein using microaneurysm clamps. This experimental model results in a segmental (70%) hepatic ischemia. This method of partial ischemia prevents mesenteric venous congestion by allowing portal decompression throughout the right and caudate lobes of the liver. The liver was then repositioned in the peritoneal cavity in its original location for 45 minutes. The liver was kept moist using gauze soaked in 0.9% normal saline. In addition, body temperature was maintained at 37° C. using a heat lamp and monitoring body temperature with a rectal temperature probe. Sham surgeries were identical except that hepatic blood flow was not reduced with a microaneurysm clamp. The duration of hepatic ischemia was 45 minutes in all experiments, following which the microaneurysm clamps were removed. The duration of hepatic reperfusion was 5 hours in the studies of serum liver transaminase levels (i.e., AST or ALT) and 24 hours for the studies of liver histopathology (such as hepatocellular infarction).
Serum samples were analyzed for aspartate aminotransferase (AST) and alanine aminotransferase (ALT) using a spectrophotometric method (Sigma Chemical Co., St. Louis, Mo.) (Harada et al., Proc Natl Acad Sci USA 100:739-744, 2003). These enzymes are liver specific and are released from the liver during injury (Hines et al., Biochem Biophys Res Commun 284:972-976, 2001; Hines et al., Am J Physiol Gastrointest Liver Physiol 284:G536-545, 2001). […]

[3] = test system: U46619-induced normoxic pulmonary hypertension; format: in vivo; conditions: 2 μg/kg/min i.v. for 30 minutes; before 24±1
Experimental: This is a simple, inexpensive, and widely available clinical nebulizer system, though other systems could be used.
Six additional lambs were studied in order to evaluate the effects of nitrite nebulization on normoxic pulmonary hypertension. Stable normoxic pulmonary hypertension was induced by an infusion of a stable endoperoxide analog of thromboxane (U46619-9,11-dideoxy-11α-epoxymethano-prostaglandin F2α, Cayman Chemicals, Ann Arbor, Mich.). The drug was dissolved in saline and was administered at a rate of 2 μg/kg/min into the femoral venous catheter for 30 minutes. Nitrite was nebulized for inhalation during the last 20 minutes of the infusion (FIG. 11).

SMILES: CNC(=N)NCCC[C@H](N)C(=O)O [L-NMMA, L-NG-monomethyl-arginine]
- reduction of forearm blood flow (forearm circulation): approximately 30%

SMILES: [N]=O [NO gas, nitric oxide]
- loss of the vasodilating effect after termination of delivery ([1]; 20 ppm): in a matter of seconds
- reduction (correction) of hypoxic-induced pulmonary hypertension ([1]; NO gas 20 ppm or nitrite aerosol for 20 minutes): about 80%

SMILES: CC1(C)N([O])C(c2ccc(C(=O)[O-])cc2)=[N+]([O-])C1(C)C.[K+] [PTIO, 2-(4-Carboxyphenyl)-4,4,5,5-tetramethylimidazoline-1-oxyl-3-oxide potassium salt]
- effect on nitrite protection (serum AST) ([2]; nitrite 24 μM + PTIO, full factorial design): completely inhibited protective effects of nitrite

SMILES: CCCCCC(O)/C=C/C1C2CC(CO2)C1C/C=C\CCCC(=O)O (stereo not drawn) [U46619, 9,11-dideoxy-11α-epoxymethano-prostaglandin F2α]
- pulmonary artery pressure during infusion [3]: 51±4 mmHg

SMILES: O=[N+]([O-])[O-].[Na+] [sodium nitrate]
- serum elevations of liver transaminases AST and ALT ([2]; intraperitoneal during hepatic ischemia, 45 min ischemia, 5 h reperfusion, nitrite 1.2-480 nmoles, nitrate 48 nmoles): did not exert any protective effects
